SMILES strings stand for the structures.

The target in the experiment is T1, human EP3 receptor (Homo sapiens, UniProt P43115).
T1 construct: expressed in transfected cells; host or cells: CHO K1 (Chinese Hamster Ovary), stably co-transfected with Galpha16 and mitochondrial clytin
T1 sequence (P43115 1-390): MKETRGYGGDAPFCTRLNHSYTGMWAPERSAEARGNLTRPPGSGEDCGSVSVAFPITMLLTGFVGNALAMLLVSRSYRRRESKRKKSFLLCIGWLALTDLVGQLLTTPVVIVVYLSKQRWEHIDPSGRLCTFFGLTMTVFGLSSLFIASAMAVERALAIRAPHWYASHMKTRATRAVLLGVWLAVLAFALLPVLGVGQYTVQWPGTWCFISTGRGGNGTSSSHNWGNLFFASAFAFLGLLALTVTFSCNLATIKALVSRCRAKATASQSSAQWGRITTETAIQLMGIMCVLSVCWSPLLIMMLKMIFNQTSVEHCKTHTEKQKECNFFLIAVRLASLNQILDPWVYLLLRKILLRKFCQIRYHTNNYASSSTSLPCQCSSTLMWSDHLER
Nature of the experiment: Cellular in vitro assay for determining EP3 receptor activity (human EP3 cell line, sulprostone-stimulated calcium luminescence). The format is cell-based. As to conditions: CHO cells expressing human EP3 and mitochondrial Clytin; antagonist mode, sulprostone at EC50; read-out: EP3 CHO mtCLY ANTAG IC50. Summed up: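 CHO K1 cells stably expressing human EP3 with Gα16 and mitochondrial Clytin, loaded overnight with coelenterazine. Compounds added 10 min before sulprostone at its EC50; antagonism read immediately as reduced calcium-driven luminescence, quadruplicate points.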
In general, IC50 refers to the point on the concentration scale where inhibition reaches its midpoint. Regarding `CC(C)(C)CNC(=O)c1cc2c(=O)[nH]c(-c3ccc4ccccc4c3)cn2n1` [Example 2-11, N-(2,2-Dimethylpropyl)-6-(2-naphthyl)-4-oxo-4,5-dihydropyrazolo[1,5-a]pyrazine-2-carboxamide], the IC50 came out at 7.15 nM.

Take `Cc1cnn(C(CNC(=O)c2cc3c(=O)[nH]c(-c4ccc5ccccc5c4)cn3n2)C(C)C)c1` (centres unmarked) [Example 2-12, N-[3-Methyl-2-(4-methyl-1H-pyrazol-1-yl)butyl]-6-(2-naphthyl)-4-oxo-4,5-dihydropyrazolo[1,5-a]pyrazine-2-carboxamide]: the IC50 turned out to be 4.65 nM.

Consider `O=C(NC(c1cccc(F)c1)C(F)F)c1cc2c(=O)[nH]c(-c3ccc4ccccc4c3)cn2n1` (centres unmarked) [Example 2-13, N-[2,2-Difluoro-1-(3-fluorophenyl)ethyl]-6-(2-naphthyl)-4-oxo-4,5-dihydropyrazolo[1,5-a]pyrazine-2-carboxamide], for which the IC50 was 1.3 nM.

Take `Cc1ccc(CNC(=O)c2cc3c(=O)[nH]c(-c4ccc5ccccc5c4)cn3n2)cc1` [Example 2-14, N-(4-Methylbenzyl)-6-(2-naphthyl)-4-oxo-4,5-dihydropyrazolo[1,5-a]pyrazine-2-carboxamide]: the IC50 is 1.25 nM.

Consider `CN(C)C(CNC(=O)c1cc2c(=O)[nH]c(-c3ccc4ccccc4c3)cn2n1)c1cccc(C(F)(F)F)c1` (centres unmarked) [Example 2-15, N-{2-(Dimethylamino)-2-[3-(trifluormethyl)phenyl]ethyl}-6-(2-naphthyl)-4-oxo-4,5-dihydropyrazolo[1,5-a]pyrazine-2-carboxamide], for which the IC50 stood at 9.55 nM.

For the compound `COc1ccc2c(c1)C(NC(=O)c1cc3c(=O)[nH]c(-c4ccc5ccccc5c4)cn3n1)CC(C)(C)O2` (centres unmarked) [Example 2-16, N-[6-Methoxy-2,2-dimethyl-3,4-dihydro-2H-chromen-4-yl]-6-(2-naphthyl)-4-oxo-4,5-dihydropyrazolo[1,5-a]pyrazine-2-carboxamide], the IC50 was found to be 6.2 nM.

Take `CC(C)C(CNC(=O)c1cc2c(=O)[nH]c(-c3ccc4ccccc4c3)cn2n1)n1cccn1` (centres unmarked) [Example 2-17, N-[3-Methyl-2-(1H-pyrazol-1-yl)butyl]-6-(2-naphthyl)-4-oxo-4,5-dihydropyrazolo[1,5-a]pyrazine-2-carboxamide]: the IC50 was determined as 6.5 nM.

For `Cc1nn(C(C)CNC(=O)c2cc3c(=O)[nH]c(-c4ccc5ccccc5c4)cn3n2)cc1Cl` (centres unmarked) [Example 2-18, N-[2-(4-Chlor-3-methyl-1H-pyrazol-1-yl)propyl]-6-(2-naphthyl)-4-oxo-4,5-dihydropyrazolo[1,5-a]pyrazine-2-carboxamide], the IC50 was 2.2 nM.

Take `Cc1cc(C)n(C(CNC(=O)c2cc3c(=O)[nH]c(-c4ccc5ccccc5c4)cn3n2)C(C)C)n1` (centres unmarked) [Example 2-19, N-[2-(3,5-Dimethyl-1H-pyrazol-1-yl)-3-methylbutyl]-6-(2-naphthyl)-4-oxo-4,5-dihydropyrazolo[1,5-a]pyrazine-2-carboxamide]: the IC50 was found to be 7.9 nM.

With `Cc1nn(C(CNC(=O)c2cc3c(=O)[nH]c(-c4ccc5ccccc5c4)cn3n2)C(C)C)c(C)c1Cl` (centres unmarked) [Example 2-20, N-[2-(4-Chloro-3,5-dimethyl-1H-pyrazol-1-yl)-3-methylbutyl]-6-(2-naphthyl)-4-oxo-4,5-dihydropyrazolo[1,5-a]pyrazine-2-carboxamide], the IC50 was determined as 9.75 nM.

In the case of `Cc1nn(C)c(C)c1C(C)NC(=O)c1cc2c(=O)[nH]c(-c3ccc4ccccc4c3)cn2n1` (centres unmarked) [Example 2-21, 6-(2-Naphthyl)-4-oxo-N-[1-(1,3,5-trimethyl-1H-pyrazol-4-yl)ethyl]-4,5-dihydropyrazolo[1,5-a]pyrazine-2-carboxamide], the IC50 amounted to 4.45 nM.

Take `CC(C)C(CNC(=O)c1cc2c(=O)[nH]c(-c3ccc4ccccc4c3)cn2n1)n1cc(Cl)cn1` (centres unmarked) [Example 2-22, N-[2-(4-Chlor-1H-pyrazol-1-yl)-3-methylbutyl]-6-(2-naphthyl)-4-oxo-4,5-dihydropyrazolo[1,5-a]pyrazine-2-carboxamide]: the IC50 is 3.85 nM.

On to `COc1cccc(CNC(=O)c2cc3c(=O)[nH]c(-c4ccc5ccccc5c4)cn3n2)c1` [Example 2-23, N-(3-Methoxybenzyl)-6-(2-naphthyl)-4-oxo-4,5-dihydropyrazolo[1,5-a]pyrazine-2-carboxamide], for which the IC50 turned out to be 1.14 nM.

For the compound `O=C(NCc1nc2ccccc2[nH]1)c1cc2c(=O)[nH]c(-c3ccc4ccccc4c3)cn2n1` [Example 2-24, N-(1H-Benzimidazol-2-ylmethyl)-6-(2-naphthyl)-4-oxo-4,5-dihydropyrazolo[1,5-a]pyrazine-2-carboxamide], the IC50 was 2.45 nM.

For `COC[C@H](Cc1ccccc1)NC(=O)c1cc2c(=O)[nH]c(-c3ccc4ccccc4c3)cn2n1` [Example 2-25, N-[(2S)-1-Methoxy-3-phenylpropan-2-yl]-6-(2-naphthyl)-4-oxo-4,5-dihydropyrazolo[1,5-a]pyrazine-2-carboxamide], the IC50 is 2.9 nM.

Regarding `O=C(NC(CO)c1cc(Cl)cc(Cl)c1)c1cc2c(=O)[nH]c(-c3ccc4ccccc4c3)cn2n1` (centres unmarked) [Example 2-26, N-[1-(3,5-Dichlorophenyl)-2-hydroxyethyl]-6-(2-naphthyl)-4-oxo-4,5-dihydropyrazolo[1,5-a]pyrazine-2-carboxamide], the IC50 is 2.65 nM.

For `C[C@@H](NC(=O)c1cc2c(=O)[nH]c(-c3ccc4ccccc4c3)cn2n1)c1cccc2ccccc12` [Example 2-27, 6-(2-Naphthyl)-N-[(7R)-1-(1-naphthyl)ethyl]-4-oxo-4,5-dihydropyrazolo[1,5-a]pyrazine-2-carboxamide], the IC50 worked out at 3.25 nM.

For the compound `O=C(NC(CO)c1ccc2c(c1)OCO2)c1cc2c(=O)[nH]c(-c3ccc4ccccc4c3)cn2n1` (centres unmarked) [Example 2-28, N-[1-(1,3-Benzodioxol-5-yl)-2-hydroxyethyl]-6-(2-naphthyl)-4-oxo-4,5-dihydropyrazolo[1,5-a]pyrazine-2-carboxamide], the IC50 came out at 0.93 nM.

With `Cc1cnn(CC(C)NC(=O)c2cc3c(=O)[nH]c(-c4ccc5ccccc5c4)cn3n2)c1` (centres unmarked) [Example 2-29, N-[1-(4-Methyl-1H-pyrazol-1-yl)propan-2-yl]-6-(2-naphthyl)-4-oxo-4,5-dihydropyrazolo[1,5-a]pyrazine-2-carboxamide], the IC50 worked out at 7.25 nM.

On to `Cc1cccc(C)c1OCC(C)NC(=O)c1cc2c(=O)[nH]c(-c3ccc4ccccc4c3)cn2n1` (centres unmarked) [Example 2-30, N-[1-(2,6-Dimethylphenoxy)propan-2-yl]-6-(2-naphthyl)-4-oxo-4,5-dihydropyrazolo[1,5-a]pyrazine-2-carboxamide], for which the IC50 was 5.45 nM.

Consider `O=C(NCc1cc(F)cc(F)c1)c1cc2c(=O)[nH]c(-c3ccc4ccccc4c3)cn2n1` [Example 2-31, N-(3,5-Difluorbenzyl)-6-(2-naphthyl)-4-oxo-4,5-dihydropyrazolo[1,5-a]pyrazine-2-carboxamide], for which the IC50 came to 2.55 nM.

For `O=C(NC1CCCc2ccccc21)c1cc2c(=O)[nH]c(-c3ccc4ccccc4c3)cn2n1` (centres unmarked) [Example 2-32, 6-(2-Naphthyl)-4-oxo-N-[1,2,3,4-tetrahydronaphthalin-1-yl]-4,5-dihydropyrazolo[1,5-a]pyrazine-2-carboxamide], the IC50 came out at 2.8 nM.

In the case of `O=C(NCc1ccc(F)c(F)c1)c1cc2c(=O)[nH]c(-c3ccc4ccccc4c3)cn2n1` [Example 2-33, N-(3,4-Difluorbenzyl)-6-(2-naphthyl)-4-oxo-4,5-dihydropyrazolo[1,5-a]pyrazine-2-carboxamide], the IC50 amounted to 1.5 nM.

Consider `C[C@H](NC(=O)c1cc2c(=O)[nH]c(-c3ccc4ccccc4c3)cn2n1)c1ccccc1` [Example 2-34, 6-(2-Naphthyl)-4-oxo-N-[(7S)-1-phenylethyl]-4,5-dihydropyrazolo[1,5-a]pyrazine-2-carboxamide], for which the IC50 came out at 1.9 nM.

In the case of `CC(NC(=O)c1cc2c(=O)[nH]c(-c3ccc4ccccc4c3)cn2n1)c1ccc2c(c1)OCCO2` (centres unmarked) [Example 2-35, N-[1-(2,3-Dihydro-1,4-benzodioxin-6-yl)ethyl]-6-(2-naphthyl)-4-oxo-4,5-dihydropyrazolo[1,5-a]pyrazine-2-carboxamide], the IC50 came out at 5.3 nM.

Regarding `CC(NC(=O)c1cc2c(=O)[nH]c(-c3ccc4ccccc4c3)cn2n1)c1ccc(Cl)c(Cl)c1` (centres unmarked) [Example 2-36, N-[1-(3,4-Dichlorphenyl)ethyl]-6-(2-naphthyl)-4-oxo-4,5-dihydropyrazolo[1,5-a]pyrazine-2-carboxamide], the IC50 worked out at 2.8 nM.

`CC(NC(=O)c1cc2c(=O)[nH]c(-c3ccc4ccccc4c3)cn2n1)c1ccc(S(N)(=O)=O)cc1` (centres unmarked) [Example 2-37, 6-(2-Naphthyl)-4-oxo-N-[1-(4-sulfamoylphenyl)ethyl]-4,5-dihydropyrazolo[1,5-a]pyrazine-2-carboxamide]: the IC50 is 4.5 nM.

Regarding `CC(C)C(NC(=O)c1cc2c(=O)[nH]c(-c3ccc4ccccc4c3)cn2n1)c1cccs1` (centres unmarked) [Example 2-38, N-[2-Methyl-1-(2-thienyl)propyl]-6-(2-naphthyl)-4-oxo-4,5-dihydropyrazolo[1,5-a]pyrazine-2-carboxamide], the IC50 amounted to 2.05 nM.

Regarding `CCc1ccc(C(C)NC(=O)c2cc3c(=O)[nH]c(-c4ccc5ccccc5c4)cn3n2)cc1` (centres unmarked) [Example 2-39, N-[1-(4-Ethylphenyl)ethyl]-6-(2-naphthyl)-4-oxo-4,5-dihydropyrazolo[1,5-a]pyrazine-2-carboxamide], the IC50 turned out to be 3.7 nM.
